In patent US20160102317A1, “PLANTS HAVING INCREASED TOLERANCE TO HERBICIDES” (BASF SE, priority 2013, published 2016):

Tests used:
[1] = molecular target: T1, Arabidopsis HPPD (SEQ ID NO:53), wild-type (Arabidopsis thaliana, UniProt P93836); test: HPPD activity assay (HGA by HPLC), wild-type enzyme characterization; assay type: biochemical; details: Arabidopsis HPPD
T1 construct: His6 (N); made in house; host or cells: E. coli BL21 (DE3)
T1 sequence (P93836 1-445): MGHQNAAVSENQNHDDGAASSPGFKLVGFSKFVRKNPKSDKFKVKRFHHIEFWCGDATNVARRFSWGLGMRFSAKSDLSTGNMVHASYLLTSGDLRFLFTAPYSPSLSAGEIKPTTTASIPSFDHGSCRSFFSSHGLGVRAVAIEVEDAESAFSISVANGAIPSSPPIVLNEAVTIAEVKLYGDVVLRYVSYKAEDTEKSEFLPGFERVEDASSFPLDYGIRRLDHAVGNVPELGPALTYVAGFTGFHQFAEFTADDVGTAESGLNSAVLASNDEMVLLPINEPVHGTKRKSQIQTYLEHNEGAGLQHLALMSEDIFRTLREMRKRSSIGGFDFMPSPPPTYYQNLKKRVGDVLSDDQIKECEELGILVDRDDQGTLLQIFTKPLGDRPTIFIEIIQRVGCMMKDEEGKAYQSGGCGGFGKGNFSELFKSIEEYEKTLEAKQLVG
Protocol: (§1) HPPD produces homogentisic acid and CO2 from 4-hydroxyphenylpyruvate (4-HPP) and 02. The activity assay for HPPD is based on the analysis of homogentisic acid by reversed phase HPLC. The assay mixture can contain 150 mM potassium phosphate buffer pH 7.0, 50 mM L-ascorbic acid, 100 μM Catalase (Sigma-Aldrich), 1 μM FeSO4 and 0.2 units of purified HPPD enzyme in a total volume of 505 μl. 1 unit is defined as the amount of enzyme that is required to produce 1 nmol of HGA per minute at 20° C.
(§2) After a preincubation of 30 min the reaction is started by adding 4-HPP to a final concentration of 0.05 mM. The reaction is allowed to proceed for 45 min at room temperature. The reaction is stopped by the addition of 50 μl of 4.5 M phosphoric acid. The sample is filtered using a […] pore size PVDF filtration device.
(§3) 5 μl of the cleared sample is analyzed on an UPLC HSS T3 column (particle size 1.8 μm, dimensions 2.1×50 mm; Waters) by isocratic elution using 90% 20 mM NaH2PO4 pH 2.2, 10% methanol (v/v).
(§4) HGA is detected electrochemically at 750 mV (mode: DC; polarity: positive) and quantified by integrating peak areas (Empower software; Waters).
(§5) Inhibitors are dissolved in DMSO (dimethylsulfoxide) to a concentration of 0.5 mM. From this stock solution serial five-fold dilutions are prepared in DMSO, which are used in the assay. The respective inhibitor solution accounts for 1% of the assay volume. […] Activities are normalized by setting the uninhibited enzyme activity to 100%. IC50 values are calculated using non-linear regression.
(§6) Using methods which are described in the above examples or well known in the art, purified, recombinant wild-type HPPD enzymes are characterized with respect to their kinetic properties and sensitivity towards HPPD inhibiting herbicides. Apparent michaelis constants (Km) and maximal reaction velocities (Vmax) are calculated by non-linear regression with the software GraphPad Prism 5 (GraphPad Software, La Jolla, USA) using a substrate inhibition model. […] Weighted means (by standard error) of Km and IC50 values are calculated from at least three independent experiments.
(§7) Field performance of the HPPD enzyme, which is used as a herbicide tolerance trait, may depend not only on its lack of sensitivity towards HPPD inhibiting herbicides but also on its activity. To assess the potential performance of a herbicide tolerance trait a tolerance index (TI) is calculated using the following formula: […]
(§8) Easy comparison and ranking of each trait is enabled by normalizing tolerance indexes on Arabidopsis wild-type HPPD.

[2] = molecular target: T2, Hordeum HPPD (SEQ ID NO:2), wild-type (Hordeum vulgare, UniProt O48604, A164G/R146V/R147D/R148G); test: as above; assay type: biochemical; details: Hordeum HPPD
T2 construct: His (N); made in house; host or cells: E. coli BL21 (DE3)
T2 sequence (O48604 whole entry R146V/R147D/R148G/A164G): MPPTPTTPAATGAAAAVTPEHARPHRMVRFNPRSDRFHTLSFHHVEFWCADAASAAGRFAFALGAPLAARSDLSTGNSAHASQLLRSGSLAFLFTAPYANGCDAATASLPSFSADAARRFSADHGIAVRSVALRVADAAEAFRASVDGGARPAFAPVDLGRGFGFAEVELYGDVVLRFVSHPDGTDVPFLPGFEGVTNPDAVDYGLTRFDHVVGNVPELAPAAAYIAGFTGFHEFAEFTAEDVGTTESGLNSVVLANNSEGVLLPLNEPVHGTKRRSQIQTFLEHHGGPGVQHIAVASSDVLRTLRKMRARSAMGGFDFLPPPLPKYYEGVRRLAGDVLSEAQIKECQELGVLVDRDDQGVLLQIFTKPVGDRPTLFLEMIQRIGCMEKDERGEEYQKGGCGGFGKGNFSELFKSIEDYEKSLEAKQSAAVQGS
Protocol: as §1, §2, §3, §4, §5, §6, §7, §8

[3] = apparent Km, read-out: Km [μM] (4-HPP)
[4] = apparent kcat from Vmax, substrate 4-HPP

## O=C(O)C(=O)Cc1ccc(O)cc1 [Inhibitor 4-HPP, 4-hydroxyphenylpyruvate, reference compound]
[1]; [3]
  Km: 13 µM
[1]; [4]
  kcat: 12.9 S^−1
[2]; [3]
  Km: 26 µM
[2]; [4]
  kcat: 11.5 S^−1
